Assay results reported in patent US9334269B2, “Carboxamides as inhibitors of voltage-gated sodium channels” (AMGEN INC., priority 2010, dated 2016).

Biological target: T1, human Nav1.7 (hNav1.7) (Homo sapiens, UniProt Q15858)
T1 construct: expressed in transfected cells
Assay: hNav1.7 whole-cell patch-clamp electrophysiology (automated PatchXpress 7000A or manual) in stably expressing 293 cells
Type: cell-based
How it was run: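 Stably transfected 293 cells lacking endogenous sodium channels; peak current evoked by depolarizing pulses during increasing compound concentrations, automated at ~20% fractional inactivation, or manually at −140 mV (resting) and ~20% inactivation. Block taken at steady state, corrected for rundown; IC50 by Hill fit.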

[1] = human Nav1.7 stably expressed in 293 cells, whole-cell patch clamp, average IC50 from Hill fit

T1 sequence (Q15858 whole entry): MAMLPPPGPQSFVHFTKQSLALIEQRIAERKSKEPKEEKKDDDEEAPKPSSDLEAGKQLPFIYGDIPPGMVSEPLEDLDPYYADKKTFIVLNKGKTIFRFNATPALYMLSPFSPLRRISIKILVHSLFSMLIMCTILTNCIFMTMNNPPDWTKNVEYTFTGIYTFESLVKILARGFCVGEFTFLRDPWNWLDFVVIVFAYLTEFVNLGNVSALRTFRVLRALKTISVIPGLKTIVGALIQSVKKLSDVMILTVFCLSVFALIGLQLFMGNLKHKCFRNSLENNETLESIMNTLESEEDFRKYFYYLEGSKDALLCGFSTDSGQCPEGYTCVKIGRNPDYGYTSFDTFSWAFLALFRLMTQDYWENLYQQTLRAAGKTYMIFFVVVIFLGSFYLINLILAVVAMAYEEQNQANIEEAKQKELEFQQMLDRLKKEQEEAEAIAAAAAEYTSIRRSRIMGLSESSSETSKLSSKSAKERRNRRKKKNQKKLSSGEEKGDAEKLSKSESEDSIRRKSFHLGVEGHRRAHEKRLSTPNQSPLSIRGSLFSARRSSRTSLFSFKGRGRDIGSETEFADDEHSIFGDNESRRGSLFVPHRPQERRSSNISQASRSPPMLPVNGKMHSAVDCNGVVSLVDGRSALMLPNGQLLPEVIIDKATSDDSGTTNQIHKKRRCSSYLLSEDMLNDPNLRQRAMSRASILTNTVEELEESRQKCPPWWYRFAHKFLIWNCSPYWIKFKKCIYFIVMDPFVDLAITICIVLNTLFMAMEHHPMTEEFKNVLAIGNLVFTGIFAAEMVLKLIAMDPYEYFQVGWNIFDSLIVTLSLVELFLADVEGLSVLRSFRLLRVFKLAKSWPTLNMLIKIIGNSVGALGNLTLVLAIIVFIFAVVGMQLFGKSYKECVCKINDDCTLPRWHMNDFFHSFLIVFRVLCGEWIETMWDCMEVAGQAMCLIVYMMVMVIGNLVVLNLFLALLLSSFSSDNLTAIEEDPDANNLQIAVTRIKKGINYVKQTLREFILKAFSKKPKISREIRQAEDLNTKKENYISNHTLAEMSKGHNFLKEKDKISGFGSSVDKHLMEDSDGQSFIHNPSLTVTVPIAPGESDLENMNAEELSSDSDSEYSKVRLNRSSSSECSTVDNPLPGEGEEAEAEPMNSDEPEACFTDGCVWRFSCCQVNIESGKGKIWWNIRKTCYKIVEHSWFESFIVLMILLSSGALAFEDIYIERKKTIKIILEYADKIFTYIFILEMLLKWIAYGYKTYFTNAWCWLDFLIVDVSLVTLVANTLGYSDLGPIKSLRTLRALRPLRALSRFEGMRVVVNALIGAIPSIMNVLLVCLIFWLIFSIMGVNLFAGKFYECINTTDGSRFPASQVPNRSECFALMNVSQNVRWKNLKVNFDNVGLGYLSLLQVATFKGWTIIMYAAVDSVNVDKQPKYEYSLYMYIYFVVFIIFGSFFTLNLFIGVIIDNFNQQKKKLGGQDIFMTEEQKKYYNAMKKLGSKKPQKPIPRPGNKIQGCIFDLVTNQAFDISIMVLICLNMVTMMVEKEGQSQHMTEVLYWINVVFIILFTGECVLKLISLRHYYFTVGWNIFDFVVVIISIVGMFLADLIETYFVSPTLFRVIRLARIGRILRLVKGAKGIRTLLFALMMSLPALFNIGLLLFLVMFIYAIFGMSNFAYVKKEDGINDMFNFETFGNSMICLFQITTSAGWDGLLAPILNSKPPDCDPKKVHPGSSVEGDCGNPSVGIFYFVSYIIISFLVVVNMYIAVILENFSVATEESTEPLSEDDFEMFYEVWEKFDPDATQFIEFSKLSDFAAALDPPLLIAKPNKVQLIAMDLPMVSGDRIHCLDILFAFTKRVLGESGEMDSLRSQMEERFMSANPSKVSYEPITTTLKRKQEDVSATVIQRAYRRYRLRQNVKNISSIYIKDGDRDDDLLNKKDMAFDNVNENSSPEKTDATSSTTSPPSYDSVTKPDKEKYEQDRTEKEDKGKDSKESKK

| Compound | IC50 (average IC50, human Nav1.7) [µM] | other results |
| --- | --- | --- |
| CNC(=O)c1cccc(Nc2ncnc(N3CCc4cc(C(O)C(F)(F)F)ccc4C3)n2)c1 (centres unmarked) [Example 292] |  | IC50 (average IC50): > 30 µM |
| CNC(=O)c1cccc(Nc2ncnc(N3CCN(c4ccc(Cl)cn4)CC3)n2)c1 [Example 108] | 1.61 |  |
| CNC(=O)c1cccc(Nc2ncnc(N3CC(Oc4ccc(CC#N)cc4)C3)n2)c1 [Example 207] | 7.98 |  |
| CNC(=O)c1cccc(Nc2ncnc(N3CC(COc4ccccc4C(F)(F)F)C3)n2)c1 [Example 276] |  | IC50 (average IC50): 23.6 µM |
| CNC(=O)c1cc(F)cc(Nc2ncnc(N3CC(Oc4ccc(Cl)cc4F)C3)n2)c1 [Example S, 3-(4-(3-(4-chloro-2-fluorophenoxy)azetidin-1-yl)-1,3,5-triazin-2-ylamino)-5-fluoro-N-methylbenzamide] |  | IC50 [1]: > 30 µM |
| CNC(=O)c1cccc(Nc2ncnc(NCCc3nnc(-c4ccc(C)s4)o3)n2)c1 [Example 287] |  | IC50 (average IC50): > 30 µM |
| CNC(=O)c1cc(F)cc(Nc2ncnc(N3CCN(c4cccc(C)n4)CC3)n2)c1 [Example 116] | 2 |  |
| CNC(=O)c1cccc(Nc2ncnc(N3CCC(n4cc(-c5ccccc5Cl)cn4)CC3)n2)c1 [Example 190] | 5.58 |  |
| CNC(=O)c1cccc(Nc2ncnc(N3CC(Oc4cc(F)ccc4F)C3)n2)c1 [Example 177] | 4.72 |  |
| O=C(NCC(F)(F)F)c1cccc(Nc2ncnc(N3CC(Oc4ccc(F)cc4)C3)n2)c1 [Example 174] | 4.62 |  |
| CNC(=O)c1cccc(Nc2nccc(N3CC(Oc4ccc(F)cc4F)C3)n2)c1 [Example H, 3-((4-(3-(2,4-difluorophenoxy)-1-azetidinyl)-2-pyrimidinyl)amino)-N-methylbenzamide] |  | IC50 [1]: 2.16 µM |
| CNC(=O)c1cccc(Nc2ncnc(N3CC(Oc4ccc(SC(F)(F)F)cc4)C3)n2)c1 [Example 83] | 1.06 |  |
| CNC(=O)c1cccc(Nc2cccc(N3CC(Oc4ccc(F)cc4)C3)c2)c1 [Example AF, 3-((3-(3-(4-fluorophenoxy)-1-azetidinyl)phenyl)amino)-N-methylbenzamide] |  | IC50 [1]: 9.53 µM |
| NC(=O)c1cccc(Nc2ncnc(N3CCC(OCc4ccc(OC(F)(F)F)cc4)CC3)n2)c1 [Example 200] | 7.03 |  |
| CNC(=O)c1cccc(Nc2ncnc(N3CC(COc4ccc(Cl)cc4F)C3)n2)c1 [Example 105] | 1.58 |  |
| CNC(=O)c1cccc(Nc2ncnc(N3CCC(COc4ccccc4)CC3)n2)c1 [Example 143] | 2.8 |  |
| CNC(=O)c1cccc(Nc2ncnc(N3CC(Oc4ccccc4-c4ccccc4)C3)n2)c1 [Example 217] | 8.66 |  |
| CNC(=O)c1cccc(Nc2ncnc(N3CCC(c4ccc(Cl)cc4)CC3)n2)c1 [Example 249] | 13.1 |  |

| Compound | IC50 (average IC50, human Nav1.7) [µM] | other results |
| --- | --- | --- |
| CNC(=O)c1cccc(Nc2ncnc(N3CCC(OCC(C)C)CC3)n2)c1 [Example 296] |  | IC50 (average IC50): > 30 µM |
| CNC(=O)c1cccc(Nc2nccc(N3CC(Oc4ccc(Cl)c(F)c4)C3)n2)c1 [Example K, 3-((4-(3-(4-chloro-3-fluorophenoxy)-1-azetidinyl)-2-pyrimidinyl)amino)-N-methylbenzamide] |  | IC50 [1]: 0.74 µM |
| CNC(=O)c1cccc(Nc2ncnc(N3CC(COc4ccc(F)cc4)C3)n2)c1 [Example 163] | 3.71 |  |
| CNC(=O)c1cccc(Nc2ncnc(N3CC(COc4ccc(Cl)c(Cl)c4)C3)n2)c1 [Example 158] | 3.5 |  |
| CNC(=O)c1cccc(Nc2ncnc(N3CC(COc4ccc(OC(F)(F)F)cc4)C3)n2)c1 [Example 67] | 0.85 |  |
| CNC(=O)c1cccc(Nc2nccc(N3CC(Oc4ccc(C(F)(F)F)cc4)C3)n2)c1 [Example C, N-methyl-3-((4-(3-(4-(trifluoromethyl)phenoxy)-1-azetidinyl)-2-pyrimidinyl)amino)benzamide] |  | IC50 [1]: 1.55 µM |
| CNC(=O)c1cccc(Nc2ncnc(N3CC(COc4ccc(Cl)c(F)c4)C3)n2)c1 [Example 91] | 1.29 |  |
| CNC(=O)c1cccc(Nc2ncnc(N3CC=C(c4nc(-c5ccccc5)cs4)CC3)n2)c1 [Example 52] | 0.66 |  |
| CNC(=O)c1cc(Nc2ncnc(NCCCOc3ccc(OC(F)(F)F)cc3)n2)ccc1F [Example 64] | 0.83 |  |
| CNC(=O)c1cccc(Nc2ncnc(N3CC(COc4ccccc4Cl)C3)n2)c1 [Example 247] | 12.8 |  |
| CNC(=O)c1cc(F)cc(Nc2ncnc(N3CCC(Oc4ccc(OC(F)(F)F)cc4)CC3)n2)c1 [Example 146] | 2.91 |  |
| Cc1c(Nc2ncnc(N3CCc4cc(Br)ccc4C3)n2)cccc1C(N)=O [Example 293] |  | IC50 (average IC50): > 30 µM |
| CNC(=O)c1cccc(Nc2nc(C)nc(N3CC(Oc4ccc(F)cc4)C3)n2)c1 [Example 284] |  | IC50 (average IC50): > 30 µM |
| CNC(=O)c1cccc(Nc2ncnc(N3CC(c4ccc(Cl)cc4)C3)n2)c1 [Example 184] | 5.23 |  |
| CNC(=O)c1cccc(Nc2ncnc(N3CCC(Oc4ccc(OCC(F)(F)F)cc4)CC3)n2)c1 [Example 101] | 1.44 |  |
| CNC(=O)c1cccc(Nc2ncnc(N3CCC(Oc4ccc(Cl)c(F)c4)CC3)n2)c1 [Example 84] | 1.08 |  |
| CNC(=O)c1cccc(Nc2ncnc(N3CC(Oc4ccc(C#N)cc4)C3)n2)c1 [Example 210] | 8.24 |  |
